Assay [1] relates to PSMA-expressing prostate cancer cells (LNCaP-wt, PC3-hPSMA) and PC3-wt. Description: Cytoplasmic calcium quantification (Fluo4 assay). Type of assay: cell-based, human. Here is the method: Cells were seeded at a density of 10,000 per well on a 96-well plate and grown overnight. Loading of the calcium-sensing dye Fluo4 (Life Technologies, Calrsbad, Calif.) was performed according to the manufacturer's instructions. Where indicated the cells were treated with thapsigargin (1 μM, Tocris, Minneapolis, Minn.), L-Quisqualic acid (110 μM, Tocris), 3,5-DHPG (0.67 mM, Tocris), L-AP3 (125 μM, Tocris), U73122 (50 μM, Tocris), and 2-PMPA (100 μM, Tocris) immediately before measuring calcium levels, with a SpectraMax M5 plate reader (Molecular Devices, Sunnyvale, Calif.).
The effect of PSMA expression on calcium homeostasis in prostate cancer cell lines was evaluated using the fluorimetric Fluo4 assay kit (Invitrogen), according to the supplier's instructions. The plate was excited at 490 nm, and fluorescence emission was monitored at 520 nm with the SpectraMax M5 plate reader (Molecular Devices). […] To examine calcium accumulation in the cytoplasm, the cells were treated with thapsigargin (1 μM, Tocris) immediately prior to taking measurements with the plate reader. […] Furthermore, we investigated whether PSMA facilitates calcium signaling via the mGluR Group I receptors through its enzymatic activity. The cells were treated with either L-Quisqualic acid (110 μM; mGluR I agonist, Tocris), L-AP3 (125 μM; mGluR I antagonist, Tocris) or a PSMA inhibitor (100 μM, Tocris), immediately prior to taking calcium measurements.

Assay [2] has as its system LNCaP, LNCaP-KD, PC3-PSMA and PC3-wt cells. The assay is described as follows: In vitro chemotherapy, cell viability (Alamar blue). To be noted: 200 nM, overnight. Here is the method: Cells were seeded in a 96-well format (2,500 cells per well), and grown for 48 h. They were then treated with the following drugs at a final concentration of 200 nM: Doxorubicin, Taxol, AZD6244, BEZ235, Lapatinib, and Velcade (all purchased from Selleck Chemicals, Houston, Tex.). For combination therapy, cells were treated with 2-PMPA (5 μM final concentration). After overnight incubation in the presence of the drugs, cell viability was determined with the Alamar blue method according to the supplier's guidelines (Life Technologies, Carlsbad, Calif.)
Given that PSMA affects the phosphorylation status of multiple targets, it was investigated whether inhibition of PSMA can counteract resistance to various chemotherapeutics used in the clinic or under clinical trials. LNCaP and PCS3-PSMA cells were seeded at a density of 2,500 cells per well in a 96-well format, and after 48 hours growth the cells were treated with the drugs (Doxorubicin (Adriamycin; DNA intercalator), Taxol (Paclitaxel; microtubule stabilizer), AZD6244 (Selumetinib; MEK1 & ERK1/2 inhibitor), BEZ235 (Dactolisib; PI3K & mTOR inhibitor), Lapatinib (EGFR and ErbB2 inhibitor), or Velcade (Bortezomib; 20S proteasome inhibitor), 200 nM final concentration in 1×PBS) or with the drugs (200 nM final concentration) and 2-PMPA (5 μM final concentration). After overnight incubation, cell viability was assessed fluorimetrically with the Alamar blue method (Invitrogen), according to the supplier's protocol.

Consider `N[C@@H](CP(=O)(O)O)C(=O)O` [L-AP3], for which the cytoplasmic calcium levels result in assay [1] (PSMA-expressing cells, PSMA inhibitor 100 μM, L-AP3 125 μM, FIG. 1c) is “lowered calcium levels”.

`COc1ccc2c(c1)CC[C@@H]1[C@@H]2CC[C@]2(C)[C@@H](NCCCCCCN3C(=O)C=CC3=O)CC[C@@H]12` [U73122]: in assay [1] (PSMA inhibition compared with Phospholipase C inhibitor U73122 50 μM, FIG. 1d), the cytoplasmic calcium levels entry is recorded as “reduction in calcium levels”.

Turning to `CC(C)C[C@H](NC(=O)[C@H](Cc1ccccc1)NC(=O)c1cnccn1)B(O)O` [Velcade, Bortezomib], the “sensitivity of PC3-wt cells compared with PC3-PSMA” value in assay [2] was “more sensitive”.

Regarding `C/C=C(/C)C(=O)O[C@H]1C(C)=C2[C@H]([C@@H]1OC(=O)CCCCCCC)[C@@](C)(OC(C)=O)C[C@H](OC(=O)CCC)[C@@]1(O)[C@H]2OC(=O)[C@@]1(C)O` [thapsigargin], the “calcium accumulation in the cytoplasm” value in assay [1] (thapsigargin 1 μM, PSMA-expressing cells versus PC3-wt, FIG. 1b) is given as “significant buildup of calcium in their cytoplasm”.

Source of the values: patent publication US20170252433A1, “PSMA-RELATED THERAPIES” (Memorial Sloan Kettering Cancer Center, priority 2014, published 2017).
